{"source": "patent US20250345330A1", "about": "(Veradermics, Incorporated, priority 2024, published 2025)", "key": {"[1]": {"conditions": "primarily conjugation with glucuronic acid; cited from earlier work"}, "rats [2]": {"tested_on": "rats", "conditions": "cited from earlier work"}, "[3]": {"conditions": "initially; chronic therapy; cited from earlier work"}, "male adults with AGA": {"tested_on": "male adults with AGA", "conditions": "5 mg oral at bedtime; 24 weeks; cited from earlier work"}, "[4]": {"conditions": "cited from earlier work; for Cmax: tablets, healthy subjects"}, "[5]": {"tested_on": "person with androgenetic alopecia", "assay": "Case studies: oral minoxidil in male patients with androgenetic alopecia (blood pressure, heart rate, hair growth)", "conditions": "1.25 mg QID"}, "[6]": {"conditions": "cited from earlier work"}, "rats [7]": {"tested_on": "rats", "conditions": "two-year, oral administration; cited from earlier work"}, "Chinese hamster cells": {"tested_on": "Chinese hamster cells", "conditions": "long exposure times; cited from earlier work"}}, "note": "Where two headings read alike, the source gives them in different places.", "data": [{"compound": "Nc1cc(N2CCCCC2)nc(N)[n+]1[O-]", "note": "[Minoxidil, minoxidil]", "values": [{"measurement": "Fraction of oral minoxidil metabolized", "setting": "[1]", "value": "About 90%"}, {"measurement": "Fetal resorption", "setting": "rats [2]", "value": "not seen in rats"}, {"measurement": "Temporary decrease in hematocrit, hemoglobin, and erythrocyte count (hemodilution)", "setting": "[3]", "value": "approximately 7%"}, {"measurement": "Cardiovascular outcomes", "setting": "male adults with AGA", "value": "No adverse cardiovascular outcomes were observed"}, {"measurement": "Dose dependence of PK", "setting": "[4]; 2.5 mg, 5 mg, or 10 mg oral, healthy volunteers", "value": "dose-independent PK"}, {"measurement": "Duration of plasma concentrations above 20 ng/mL", "setting": "[4]; 5 mg dose level", "value": "around 1 h"}, {"measurement": "Duration of plasma concentrations above 20 ng/mL", "setting": "[4]; 10 mg dose level", "value": "around 2 h"}, {"measurement": "Cmax", "setting": "[4]; 2.5 mg", "value": 16.8, "unit": "ng/mL"}, {"measurement": "Cmax", "setting": "[4]; 5 mg", "value": 37.2, "unit": "ng/mL"}, {"measurement": "Cmax", "setting": "[4]; 10 mg", "value": 74.7, "unit": "ng/mL"}, {"measurement": "Adverse events", "setting": "[5]", "value": "No unwanted hair growth or other adverse events"}, {"measurement": "Radioactivity found in feces", "setting": "[6]; human, in vivo", "value": 3, "unit": "%"}, {"measurement": "Radioactivity recovered from urine, in total", "setting": "[6]; human, in vivo", "value": 97, "unit": "%"}, {"measurement": "Radiolabeled minoxidil and metabolites recovered from urine", "setting": "[6]; within 24 h after oral administration", "value": "Over 80%"}, {"measurement": "Carcinogenicity findings", "setting": "rats [7]", "value": "no positive findings"}, {"measurement": "Cytogenetic assay result", "setting": "Chinese hamster cells", "value": "equivocal result"}]}]}
